Assay results published in US10000765B2, “Gene encoding cytochrome P450, and use thereof” (NATIONAL INSTITUTE OF AGROBIOLOGICAL SCIENCES, priority 2011, dated 2018).

Assays:
[1] = tested on: Nipponbare calluses overexpressing Kasalath-derived or Nipponbare-derived CYP72A32 or CYP72A33; assay: Callus growth test on BS-containing medium, CYP72A32 or CYP72A33 overexpression constructs; type: cell-based, Oryza sativa
Excerpt: According to Example 5, an HptII::35Spro::Kasalath CYP72A32::Tnos vector plasmid (pCAMBIA1390-KasCYP72A32, a kasCYP72A32 overexpression construct), an HptII::35 Spro::Kasalath CYP72A33::Tnos vector plasmid (pCAMBIA1390-KasCYP72A33, a kasCYP72A33 overexpression construct), an HptII::35Spro::Nipponbare CYP72A32::Tnos vector plasmid (pCAMBIA1390-nbCYP72A32, an nbCYP72A32 overexpression construct), or an HptII::35Spro::Nipponbare CYP72A33::Tnos vector plasmid (pCAMBIA1390-nbCYP72A33, an nbCYP72A33 overexpression construct) was introduced into a rice variety (a cultivar: Nipponbare) by using an Agrobacterium method. Transformed calluses selected with 50 ppm hygromycin were isolated, and transplanted onto a bispyribac-sodium (BS)-containing medium to examine callus growth.

[2] = tested on: Arabidopsis thaliana K33-1-3 and K33-2-4; assay: Growth test in BS-containing medium, Arabidopsis transformed with Kasalath-derived CYP72A33; type: in vivo; conditions: day 10 from onset of cultivation, compared to NT
Excerpt: (§1) In this Example, Agrobacterium as prepared in Example 4 was used to introduce HptII::35Spro::Kasalath CYP72A31::Tnos vector plasmid (pCAMBIA1390-KasCYP72A31), HptII::35Spro::Kasalath CYP72A32::Tnos vector plasmid (pCAMBIA1390-KasCYP72A32), or HptII::35Spro::Kasalath CYP72A33::Tnos vector plasmid (pCAMBIA1390-KasCYP72A33) into Arabidopsis thaliana (ecotype: Col-0) by using a floral-dip method. The floral-dip method followed a standard method. […] K31-4-2 and K31-6-5 were selected as fixed lines derived from pCAMBIA1390-KasCYP72A31; K32-1-1, K32-3-1, and K32-5-1 were selected as fixed lines derived from pCAMBIA1390-KasCYP72A32; and K33-1-3 and K33-2-4 were selected as fixed lines derived from pCAMBIA1390-KasCYP72A33. Their seeds were seeded in a medium containing each concentration of BS, and cultivated for 10 days. FIGS. 16A and 16B illustrate the results.
Next, 15 seeds for each of non-transformed Arabidopsis thaliana (NT which is denoted by “Col-0” in FIGS. 19A-19C) and transformed plant bodies (K33-1-3 which is denoted by “K33oe-1-3” in FIGS. 19A-19C and K33-2-4 which is denoted by “K33oe-2-4” in FIGS. 19A-19C) were cultivated on a medium containing each concentration of BS. […]

[3] = tested on: CYP72A31-overexpressing rice (K31-4-6-2); assay: Drug sensitivity test on gellan gum medium, CYP72A31-overexpressing rice; type: in vivo, Oryza sativa; conditions: for CK ratio (%): plant height compared with drug-free medium
Procedure: Next, 1.6 g of Hoagland's mix (Sigma-Aldrich Corporation) and 3 g of Gelrite (Wako Pure Chemical Industries, Ltd.) were suspended in 1 L of distilled water. Then, the mixture was dissolved and heated in a microwave. After that, the mixture was cooled to 50 to 60 degree C., and BS was added at a final concentration of 1 μM. This mixture was dispensed into 30-mL tubular bottles at 15 mL to prepare a gellan gum medium. Next, CSSL rice paddies were soaked in 0.5% sodium hypochlorite for about 20 minutes, and were then washed well with water. These paddies were soaked in distilled water, and kept at 27 degree C. for 3 to 5 days for germination. Germinating seeds were softly planted in sprout-side up on the gellan gum medium. These samples, together with a beaker filled with distilled water, were placed in a transparent case, which was then covered with a clear-plastic wrap. These samples were grown at 27 degree C. under fluorescent light illumination (14 hours of a light period and 10 hours of a dark period) for 7 to 9 days.
According to the method of Example 1, a gellan gum medium containing a test drug at a concentration of 0.01, 0.1, 1, or 10 μM was prepared. Rice seeds were sterilized, germinated, seeded in the medium, and cultivated.

[4] = tested on: Arabidopsis thaliana K32-1-1, K32-3-1 and K32-5-1; assay: Growth test in BS-containing medium, Arabidopsis transformed with Kasalath-derived CYP72A32; type: in vivo; conditions: day 10 from onset of cultivation, compared to NT
Excerpt: as §1
Next, 15 seeds for each of non-transformed Arabidopsis thaliana (NT which is denoted by “Col-0” in FIGS. 18A-18C) and transformed plant bodies (K32-1-1 which is denoted by “K32oe-1-1” in FIGS. 18A-18C, K32-3-1 which is denoted by “K32oe-3-1” in FIGS. 18A-18C, and K32-5-1 which is denoted by “K32oe-5-” in FIGS. 18A-18C) were cultivated on a medium containing each concentration of BS. […]

[5] = tested on: rice calluses transformed with pSTARA-sGFP; assay: Selection of drug-resistant callus in N6D medium, pSTARA-sGFP; type: cell-based, Oryza sativa; conditions: N6D medium containing 0.25 μM BS
Procedure: (§2) Rice transformed with pCAMBIA1390-KasCYP72A31 was used to examine whether a Kasalath-derived CYP72A31 gene was able to be used as a selection marker for transformation with BS as a selection reagent. According to Example 5, rice (Nipponbare) was transformed with pCAMBIA1390-KasCYP72A31 or pSTARA-sGFP by using an Agrobacterium method.
(§3) Rice (Nipponbare) calluses transformed with pCAMBIA1390-KasCYP72A31 were cultured for 4 weeks in an N6D medium containing 0.1 or 0.25 μM BS or an N6D medium containing 50 ppm hygromycin to select drug-resistant calluses. Also, rice calluses transformed with pSTARA-sGFP were selected in a similar manner in an N6D medium containing 0.25 μM BS.

[6] = tested on: Rice (Nipponbare) calluses transformed with pCAMBIA1390-KasCYP72A31; assay: Selection of drug-resistant callus in N6D medium, pCAMBIA1390-KasCYP72A31; type: cell-based, Oryza sativa; conditions: 4 weeks
Procedure: as §2, §3

COc1cc(OC)nc(Oc2cccc(Oc3nc(OC)cc(OC)n3)c2C(=O)O)n1 [BS, bispyribac sodium]
Callus growth [1]: not grown | BS sensitivity (germinated seeds, emerging of true leaves, fresh weight of above-ground part) [2]: BS sensitivity equivalent to NT | Resistance of transformed rice to the drug ([3]; Table 4 and FIG. 25): exhibited resistance | Ratio of sensitivity ([3]; maximum drug concentration for CK ratio of 40% or more, K31-4-6-2 / wild-type rice): >100 | CK ratio (%) ([3]; K31-4-6-2, drug 0.01 μM): 106% | CK ratio (%) ([3]; K31-4-6-2, drug 0.1 μM): 97% | CK ratio (%) ([3]; K31-4-6-2, drug 1 μM): 103% | CK ratio (%) ([3]; K31-4-6-2, drug 10 μM): 74% | BS sensitivity (germinated seeds, emerging of true leaves, fresh weight of above-ground part) [4]: BS sensitivity equivalent to NT | Selection efficiency (ratio of the resulting transformed calluses/all calluses) [5]: 82% | Selection efficiency (ratio of the resulting transformed calluses/all calluses) ([6]; N6D medium containing 0.1 μM BS): 71% | Selection efficiency (ratio of the resulting transformed calluses/all calluses) ([6]; N6D medium containing 0.25 μM BS): 61%
